Data from patent US11076594B2, “Pyrazolone compound or salt thereof, preparation method therefor, herbicide composition and use thereof” (QINGDAO KINGAGROOT CHEMICAL COMPOUNDS CO., LTD., priority 2015, dated 2021).

Legend:
Format in all cases: in vivo
Indian mallow = assay: weed control effect in post-emergence stage (Table 1); design: key: Level 10: completely dead; Level 9: above 95% growth control rate; Level 8: above 90% growth control rate; Level 7: above 80% growth control rate; Level 6: above 70% growth control rate; Level 5: above 60% growth control rate; Level 4: above 50% growth control rate; Level 3: above 20% growth control rate; Level 2: 5%-20% growth control rate; Level 1: below 5% growth control rate; conditions: post-emergence spray at 4-5 leaf stage, 250 g/ha active ingredient with 450 kg/ha water, rated after 3 weeks in greenhouse
In short: (§1)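 Weeds and crops grown in soil-filled pots in a greenhouse were sprayed at the 4-5 leaf stage (2-3 weeks after sowing). Compounds were applied in acetone with tween 80, diluted in water. After 3 weeks' culture, growth control was scored as fresh weight control rate.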

bidens bipinnata = assay: as above; design: key: Level 10: completely dead; Level 9: above 95% growth control rate; Level 8: above 90% growth control rate; Level 7: above 80% growth control rate; Level 6: above 70% growth control rate; Level 5: above 60% growth control rate; Level 4: above 50% growth control rate; Level 3: above 20% growth control rate; Level 2: 5%-20% growth control rate; Level 1: below 5% growth control rate; conditions: post-emergence spray at 4-5 leaf stage, 250 g/ha active ingredient with 450 kg/ha water, rated after 3 weeks in greenhouse
In short: as §1

crab grass = assay: as above; design: key: Level 10: completely dead; Level 9: above 95% growth control rate; Level 8: above 90% growth control rate; Level 7: above 80% growth control rate; Level 6: above 70% growth control rate; Level 5: above 60% growth control rate; Level 4: above 50% growth control rate; Level 3: above 20% growth control rate; Level 2: 5%-20% growth control rate; Level 1: below 5% growth control rate; conditions: post-emergence spray at 4-5 leaf stage, 250 g/ha active ingredient with 450 kg/ha water, rated after 3 weeks in greenhouse
In short: as §1

echinochloa [1] = assay: as above; design: key: Level 10: completely dead; Level 9: above 95% growth control rate; Level 8: above 90% growth control rate; Level 7: above 80% growth control rate; Level 6: above 70% growth control rate; Level 5: above 60% growth control rate; Level 4: above 50% growth control rate; Level 3: above 20% growth control rate; Level 2: 5%-20% growth control rate; Level 1: below 5% growth control rate; conditions: post-emergence spray at 4-5 leaf stage, 250 g/ha active ingredient with 450 kg/ha water, rated after 3 weeks in greenhouse
In short: as §1

foxtail = assay: as above; design: key: Level 10: completely dead; Level 9: above 95% growth control rate; Level 8: above 90% growth control rate; Level 7: above 80% growth control rate; Level 6: above 70% growth control rate; Level 5: above 60% growth control rate; Level 4: above 50% growth control rate; Level 3: above 20% growth control rate; Level 2: 5%-20% growth control rate; Level 1: below 5% growth control rate; conditions: post-emergence spray at 4-5 leaf stage, 250 g/ha active ingredient with 450 kg/ha water, rated after 3 weeks in greenhouse
In short: as §1

rorippa indica = assay: as above; design: key: Level 10: completely dead; Level 9: above 95% growth control rate; Level 8: above 90% growth control rate; Level 7: above 80% growth control rate; Level 6: above 70% growth control rate; Level 5: above 60% growth control rate; Level 4: above 50% growth control rate; Level 3: above 20% growth control rate; Level 2: 5%-20% growth control rate; Level 1: below 5% growth control rate; conditions: post-emergence spray at 4-5 leaf stage, 250 g/ha active ingredient with 450 kg/ha water, rated after 3 weeks in greenhouse
In short: as §1

wheat = assay: post-emergence stage experiment, crop (Table 1); conditions: post-emergence spray at 4-5 leaf stage, 250 g/ha active ingredient with 450 kg/ha water, rated after 3 weeks in greenhouse
In short: as §1

rice = assay: post-emergence stage experiment, crop (Table 1); conditions: post-emergence spray at 4-5 leaf stage, 250 g/ha active ingredient with 450 kg/ha water, rated after 3 weeks in greenhouse
In short: as §1

bidens tripartite = assay: weed control effect evaluation in rice field; design: key: Level 10: completely dead; Level 9: above 95% growth control rate; Level 8: above 90% growth control rate; Level 7: above 80% growth control rate; Level 6: above 70% growth control rate; Level 5: above 60% growth control rate; Level 4: above 50% growth control rate; Level 3: above 20% growth control rate; Level 2: 5%-20% growth control rate; Level 1: below 5% growth control rate; conditions: 125 g/ha ai; rice field pot; 14 days after treatment; resistant to pyrazosulfuron-ethyl
Excerpt: (§2) The activity level standard of harmful plant destruction (i.e. growth control rate) is as follows: Rice field soil was loaded into a 1/1,000,000 ha pot. The seeds of echinochloa, scirpus juncoides, bidens tripartite and sagittaria trifolia were sowed and gently covered with soil, then left to stand still in greenhouse in the state of 0.5-1 cm of water storage. The tuber of sagittaria trifolia was planted in the next day or 2 days later. It was kept at 3-4 cm of water storage thereafter. The weeds were treated by dripping the WP or SC water diluents prepared according to the common preparation method of the compounds of the present invention with pipette homogeneously to achieve specified effective amount when echinochloa, scirpus juncoides and bidens tripartite reached 0.5 leaf stage and sagittaria trifolia reached the time point of primary leaf stage. The fertility condition of echinochloa, scirpus juncoides, bidens tripartite and sagittaria trifolia 14 days after the treatment of the compound of the invention and the fertility condition of rice 21 days after the treatment of the compound of the invention respectively with the naked eye.

echinochloa [2] = assay: weed control effect evaluation in rice field; design: key: Level 10: completely dead; Level 9: above 95% growth control rate; Level 8: above 90% growth control rate; Level 7: above 80% growth control rate; Level 6: above 70% growth control rate; Level 5: above 60% growth control rate; Level 4: above 50% growth control rate; Level 3: above 20% growth control rate; Level 2: 5%-20% growth control rate; Level 1: below 5% growth control rate; conditions: 125 g/ha ai; rice field pot; 14 days after treatment; resistant to pyrazosulfuron-ethyl
Excerpt: as §2

sagittaria trifolia = assay: weed control effect evaluation in rice field; design: key: Level 10: completely dead; Level 9: above 95% growth control rate; Level 8: above 90% growth control rate; Level 7: above 80% growth control rate; Level 6: above 70% growth control rate; Level 5: above 60% growth control rate; Level 4: above 50% growth control rate; Level 3: above 20% growth control rate; Level 2: 5%-20% growth control rate; Level 1: below 5% growth control rate; conditions: 125 g/ha ai; rice field pot; 14 days after treatment; resistant to pyrazosulfuron-ethyl
Excerpt: as §2

scirpus juncoides = assay: weed control effect evaluation in rice field; design: key: Level 10: completely dead; Level 9: above 95% growth control rate; Level 8: above 90% growth control rate; Level 7: above 80% growth control rate; Level 6: above 70% growth control rate; Level 5: above 60% growth control rate; Level 4: above 50% growth control rate; Level 3: above 20% growth control rate; Level 2: 5%-20% growth control rate; Level 1: below 5% growth control rate; conditions: 125 g/ha ai; rice field pot; 14 days after treatment; resistant to pyrazosulfuron-ethyl
Excerpt: as §2

rice (japonica rice) = assay: transplanted rice safety evaluation; conditions: 125 g/ha ai; treated 5 days after transplantation; 21 days after treatment
Description: The activity level standard of harmful plant destruction (i.e. growth control rate) is as follows: In addition, the rice field soil that loaded into the 1/1,000,000 ha pot was leveled to keep water storage at 3-4 cm depth. The 3 leaf stage rice (japonica rice) was transplanted at 3 cm of transplanting depth the next day. The compound of the present invention was treated by the same way after 5 days of transplantation. The fertility condition of echinochloa, scirpus juncoides, bidens tripartite and sagittaria trifolia 14 days after the treatment of the compound of the invention and the fertility condition of rice 21 days after the treatment of the compound of the invention respectively with the naked eye.

corn = assay: post-emergence stage experiment, crop (Table 1); conditions: post-emergence spray at 4-5 leaf stage, 250 g/ha active ingredient with 450 kg/ha water, rated after 3 weeks in greenhouse
In short: as §1

SMILES	effect on crop, Wheat (level) (wheat)	weed control effect, Indian mallow (level) (Indian mallow)	weed control effect, Bidens bipinnata (level) (bidens bipinnata)	weed control effect, Crab grass (level) (crab grass)	weed control effect, Echinochloa (level) (echinochloa [1])	weed control effect, Green foxtail (level) (foxtail)	weed control effect, Rorippa indica (level) (rorippa indica)	effect on crop, Rice (level) (rice)	Bidens tripartite weed control effect (activity level) (bidens tripartite)	Echinochloa weed control effect (activity level) (echinochloa [2])	Sagittaria trifolia weed control effect (activity level) (sagittaria trifolia)	Scirpus juncoides weed control effect (activity level) (scirpus juncoides)	Rice (activity level, transplanted rice safety) (rice (japonica rice))	effect on crop, Corn (level) (corn)
Cc1nn(C)c(O)c1C(=O)c1ccc(C(F)(F)F)c(-n2cccn2)c1Cl [Compound 068]	3 (Level 3: above 20% growth control rate)	10	10	5 (Level 5: above 60% growth control rate)	10	10	9 (Level 9: above 95% growth control rate)	5 (Level 5: above 60% growth control rate)	10	10	10	9 (Level 9: above 95% growth control rate)	1 (Level 1: below 5% growth control rate)	–
CCOc1c(C(=O)Oc2c(C(=O)c3ccc(C(F)(F)F)c(-n4cccn4)c3Cl)cnn2C)cnn1C [Compound 065]	3 (Level 3: above 20% growth control rate)	9 (Level 9: above 95% growth control rate)	7 (Level 7: above 80% growth control rate)	8 (Level 8: above 90% growth control rate)	7 (Level 7: above 80% growth control rate)	10	9 (Level 9: above 95% growth control rate)	3 (Level 3: above 20% growth control rate)	8 (Level 8: above 90% growth control rate)	9 (Level 9: above 95% growth control rate)	9 (Level 9: above 95% growth control rate)	9 (Level 9: above 95% growth control rate)	3 (Level 3: above 20% growth control rate)	9 (Level 9: above 95% growth control rate)
Cc1ccn(-c2c(C(F)(F)F)ccc(C(=O)c3c(C)nn(C)c3O)c2Cl)n1 [Compound 077]	0	10	9 (Level 9: above 95% growth control rate)	4 (Level 4: above 50% growth control rate)	10	7 (Level 7: above 80% growth control rate)	10	6 (Level 6: above 70% growth control rate)	9 (Level 9: above 95% growth control rate)	10	10	10	1 (Level 1: below 5% growth control rate)	–

More lines, main results first:

effect on crop, Wheat (level) (wheat)	SMILES	weed control effect, Indian mallow (level) (Indian mallow)	weed control effect, Bidens bipinnata (level) (bidens bipinnata)	weed control effect, Crab grass (level) (crab grass)	weed control effect, Echinochloa (level) (echinochloa [1])	weed control effect, Green foxtail (level) (foxtail)	weed control effect, Rorippa indica (level) (rorippa indica)	effect on crop, Rice (level) (rice)	Bidens tripartite weed control effect (activity level) (bidens tripartite)	Echinochloa weed control effect (activity level) (echinochloa [2])	Sagittaria trifolia weed control effect (activity level) (sagittaria trifolia)	Scirpus juncoides weed control effect (activity level) (scirpus juncoides)	Rice (activity level, transplanted rice safety) (rice (japonica rice))	effect on crop, Corn (level) (corn)
0	Cc1nn(C)c(O)c1C(=O)c1ccc(C(F)(F)F)c(N2CCCCCC2=O)c1Cl [Compound 054]	9 (Level 9: above 95% growth control rate)	9 (Level 9: above 95% growth control rate)	1 (Level 1: below 5% growth control rate)	6 (Level 6: above 70% growth control rate)	5 (Level 5: above 60% growth control rate)	9 (Level 9: above 95% growth control rate)	4 (Level 4: above 50% growth control rate)	9 (Level 9: above 95% growth control rate)	8 (Level 8: above 90% growth control rate)	9 (Level 9: above 95% growth control rate)	9 (Level 9: above 95% growth control rate)	2 (Level 2: 5%-20% growth control rate)	–
0	Cc1nn(C)c(O)c1C(=O)c1ccc(C(F)(F)F)c(N)c1Cl [Compound 001]	9 (Level 9: above 95% growth control rate)	8 (Level 8: above 90% growth control rate)	1 (Level 1: below 5% growth control rate)	6 (Level 6: above 70% growth control rate)	6 (Level 6: above 70% growth control rate)	9 (Level 9: above 95% growth control rate)	4 (Level 4: above 50% growth control rate)	8 (Level 8: above 90% growth control rate)	10	9 (Level 9: above 95% growth control rate)	10	0	–
